# Source: ChEMBL document CHEMBL5154663, “Biotinylated curcumin as a novel chemosensitizer enhances naphthalimide-induced autophagic cell death in breast cancer cells” (Eur J Med Chem, 2022)
# Activity calls are given as the source filed them. The calls are words filed in the database; no cut-off is given here.
# Legend:
# [1] = Octanol-water partition coefficient, logP of the compound; type: physicochemical
# MCF7 [2] = assay: Induction of ROS generation in human MCF7 cells assessed as increase in ROS level at 5 uM for 10 mins by DCFH-DA staining-based flow cytometry; type: functional
# [3] = Effect on HClO level in human MCF7 cells by fluorescence method; type: functional
# MCF7 [4] = assay: Potentiation of MCLOP induced autophagy in human MCF7 cells assessed as increase in […] protein ratio level at 5 uM and measured after 24 hrs by western blot analysis; type: functional, cell-based
# MCF7 [5] = assay: Potentiation of MCLOP induced autophagy in human MCF7 cells assessed as decrease in p62 protein level at 5 uM measured after 24 hrs by western blot analysis; type: functional, cell-based
# MCF7 [6] = assay: Potentiation of MCLOP induced antitumor activity against human MCF7 cells xenografted in Balb/c nude mouse assessed as tumor growth inhibition at 5 mg/kg, ip administered once daily for 15 days in presence of light irradiation; type: functional, organism-based; settings: time 15.0 day
# [7] = Toxicity in BALB/c nude mouse xenografted with human MCF cells assessed as MCLOP induced morphological changes in heart at 5 mg/kg, ip administered once daily for 15 days by H and E staining based analysis; type: organism-based; settings: in vivo, 360 h, time 15 day
# [8] = Toxicity in BALB/c nude mouse xenografted with human MCF cells assessed as MCLOP induced morphological changes in liver at 5 mg/kg, ip administered once daily for 15 days by H and E staining based analysis; type: organism-based; settings: in vivo, 360 h, time 15 day
# [9] = Toxicity in BALB/c nude mouse xenografted with human MCF cells assessed as MCLOP induced morphological changes in spleen at 5 mg/kg, ip administered once daily for 15 days by H and E staining based analysis; type: organism-based; settings: in vivo, 360 h, time 15 day
# [10] = Toxicity in BALB/c nude mouse xenografted with human MCF cells assessed as MCLOP induced morphological changes in lung at 5 mg/kg, ip administered once daily for 15 days by H and E staining based analysis; type: organism-based; settings: in vivo, 360 h, time 15 day
# [11] = Toxicity in BALB/c nude mouse xenografted with human MCF cells assessed as MCLOP induced morphological changes in kidney at 5 mg/kg, ip administered once daily for 15 days by H and E staining based analysis; type: organism-based; settings: in vivo, 360 h, time 15 day
# MCF7 [12] = assay: Potentiation of MCLOP induced autophagy in human MCF7 cells assessed as induction of autophagosomes formation by measuring increase LC3 puncta at 5 uM measured after 24 hrs by confocal microscopic analysis; type: functional, cell-based
# [13] = Toxicity in BALB/c nude mouse xenografted with human MCF7 cells assessed as effect on body weight at 5 mg/kg, ip administered once daily for 15 days in presence of light irradiation; type: organism-based; settings: in vivo, 360 h, time 15 day
# MCF7 [14] = assay: Potentiation of MCLOP induced cell membrane permeability in human MCF7 cells at 5 uM in dark by confocal microscopy analysis; type: functional
# MCF7 [15] = assay: Potentiation of MCLOP induced cell membrane permeability in human MCF7 cells at 5 uM in presence of light irradiation by confocal microscopy analysis; type: functional
# MCF7 [16] = assay: Potentiation of MCLOP induced ROS generation in human MCF7 cells assessed as increase in ROS level at 5 uM for 10 mins by DCFH-DA staining-based flow cytometry; type: functional
# MCF7 [17] = assay: Potentiation of MCLOP induced increase in HClO level in human MCF7 cells by fluorescence method; type: functional
# MCF7 [18] = assay: Antiproliferative activity against human MCF7 cells assessed as cell viability in dark incubated for 48 hrs by MTT assay; type: functional, cell-based; settings: MCF7, 48 h
# MCF7 [19] = assay: Antiproliferative activity against human MCF7 cells assessed as cell viability in light irradiation and measured after 48 hrs by MTT assay; type: functional, cell-based; settings: MCF7, light or radiation study
# B16-F10 [20] = assay: Antiproliferative activity against mouse B16-F10 cells assessed as cell viability in dark incubated for 48 hrs by MTT assay; type: functional, cell-based; settings: B16-F10, 48 h
# B16-F10 [21] = assay: Antiproliferative activity against mouse B16-F10 cells assessed as cell viability in light irradiation and measured for 48 hrs by MTT assay; type: functional, cell-based; settings: B16-F10, light or radiation study
# MCF7 [22] = assay: Induction of cell membrane permeability in human MCF7 cells at 5 uM in presence of light irradiation by confocal microscopy analysis; type: functional
# MCF7 [23] = assay: Cytotoxicity against human MCF7 cells assessed as cell viability at 10 uM incubated for 48 hrs by MTT assay; type: toxicity, cell-based; settings: mcf7, 48 h
# MCF7 [24] = assay: Potentiation of MCLOP induced antiproliferative activity against human MCF7 cells assessed as cell survial rate in presence of light irradiation at 10 uM and measured after 48 hrs by MTT assay; type: functional
compound,measurement,setting,value
COc1cc(/C=C/C(=O)CC(=O)/C=C/c2ccc(OC(=O)CCCC[C@@H]3SC[C@@H]4NC(=O)N[C@@H]43)c(OC)c2)ccc1O,logP,[1],0.91
same,Activity,MCF7 [2]; DDE = dose-dependent effect,Dde
same,fold change (FC),[3],2.3
same,Activity,MCF7 [4],Active
same,Activity,MCF7 [5],Active
same,Activity,MCF7 [6],Active
same,Activity,[7],Non-Toxic
same,Activity,[8],Non-Toxic
same,Activity,[9],Non-Toxic
same,Activity,[10],Non-Toxic
same,Activity,[11],Non-Toxic
same,Activity,MCF7 [12],Active
same,Activity,[13],Non-Toxic
same,fold change (FC),MCF7 [14],3
same,fold change (FC),MCF7 [15],5.3
same,fold change (FC),MCF7 [16],5.6
same,fold change (FC),MCF7 [17],2.2
CN(C)c1ccc2c(c1)Sc1cc(N(C)C)ccc1N2C(=O)NCCN1C(=O)c2cccc3cc([N+](=O)[O-])cc(c23)C1=O,IC50,MCF7 [18],> 40 µM
same,IC50,MCF7 [19],12.7 µM
same,IC50,B16-F10 [20],> 40 µM
same,IC50,B16-F10 [21],30.8 µM
same,fold change (FC),MCF7 [2],3.1
same,Activity,[13],Non-Toxic
same,fold change (FC),MCF7 [22],4.1
COc1cc(/C=C/C(=O)CC(=O)/C=C/c2ccc(O)c(OC)c2)ccc1O [CURCUMIN],Activity,MCF7 [23],Non-Toxic
same,logP,[1],2.04
same,Activity,MCF7 [24],20%
CN(C)c1ccc2nc3ccc(N(C)C)cc3[s+]c2c1 [METHYLENE BLUE ANHYDROUS],IC50,MCF7 [18],14.6 µM
same,IC50,MCF7 [19],10.6 µM
same,IC50,B16-F10 [20],7.02 µM
same,IC50,B16-F10 [21],5.48 µM
